≈ marks a conversion by molar mass, not a printed value. Like-named read-outs stand apart in the source and are kept apart here.
Key:
S. pneumoniae A-9585 = assay: In vitro MIC, tube dilution; format: cell-based; conditions: Streptococcus pneumoniae, A9585, Nutrient Broth, overnight incubation at 37° C., additional data table
S. pyogenes A-9604 = assay: In vitro MIC, tube dilution; format: cell-based; conditions: Streptococcus pyogenes, A9604, tube dilution, Nutrient Broth, overnight incubation at 37° C.; additional data table
S. aureus A-9537 = assay: In vitro MIC, tube dilution; format: cell-based; conditions: Staphylococcus aureus, overnight incubation at 37° C., additional data table
[1] = test system: S. aureus A-9606 (Pen-res.); assay: In vitro MIC, tube dilution; format: cell-based; conditions: Staphylococcus aureus, Nutrient Broth, overnight incubation at 37° C., additional data table, read-out: MIC S. aureus (Pen-res.) A-9606
S. faecalis A20688 = assay: In vitro MIC, tube dilution; format: cell-based; conditions: Enterococcus faecalis, A20688, tube dilution, Nutrient Broth, overnight incubation at 37° C.; additional data table
E. coli A15119 = assay: In vitro MIC, tube dilution; format: cell-based; conditions: Escherichia coli, A15119, tube dilution, Nutrient Broth, overnight incubation at 37° C.; additional data table
E. coli A20341-1 = assay: In vitro MIC, tube dilution; format: cell-based; conditions: Escherichia coli, A203411, tube dilution, Nutrient Broth, overnight incubation at 37° C.; additional data table
K. pneumoniae A-9664 = assay: In vitro MIC, tube dilution; format: cell-based; conditions: Klebsiella pneumoniae, A9664, tube dilution, Nutrient Broth, overnight incubation at 37° C.; additional data table
K. pneumoniae A20468 = assay: In vitro MIC, tube dilution; format: cell-based; conditions: Klebsiella pneumoniae, A20468, tube dilution, Nutrient Broth, overnight incubation at 37° C.; additional data table
P. mirabilis A-9900 = assay: In vitro MIC, tube dilution; format: cell-based; conditions: Proteus mirabilis, A9900, tube dilution, Nutrient Broth, overnight incubation at 37° C.; additional data table
P. vulgaris A21559 = assay: In vitro MIC, tube dilution; format: cell-based; conditions: Proteus vulgaris, A21559, tube dilution, Nutrient Broth, overnight incubation at 37° C.; additional data table
P. morganii A15153 = assay: In vitro MIC, tube dilution; format: cell-based; conditions: Morganella morganii, A15153, tube dilution, Nutrient Broth, overnight incubation at 37° C.; additional data table; read-out: MIC M. morganii A15153
P. rettgeri A22424 = assay: In vitro MIC, tube dilution; format: cell-based; conditions: Providencia rettgeri, A22424, tube dilution, Nutrient Broth, overnight incubation at 37° C.; additional data table
S. marcescens A20019 = assay: In vitro MIC, tube dilution; format: cell-based; conditions: Serratia marcescens, A20019, tube dilution, Nutrient Broth, overnight incubation at 37° C.; additional data table
E. cloacae A-9656 = assay: In vitro MIC, tube dilution; format: cell-based; conditions: Enterobacter cloacae, A9656, tube dilution, Nutrient Broth, overnight incubation at 37° C.; additional data table
P. aeruginosa A-9843A [2] = assay: In vitro MIC, tube dilution; format: cell-based; conditions: Pseudomonas aeruginosa, A9843A, Nutrient Broth, overnight incubation at 37° C., additional data table
P. aeruginosa A21213 = assay: In vitro MIC, tube dilution; format: cell-based; conditions: Pseudomonas aeruginosa, A21213, tube dilution, Nutrient Broth, overnight incubation at 37° C.; additional data table
E. cloacae A-9659 = assay: In vitro MIC, tube dilution; format: cell-based; conditions: Enterobacter cloacae, A9659, tube dilution, Nutrient Broth, overnight incubation at 37° C.; additional data table
Source text: N-formimidoyl thienamycin was included as a comparison compound.

[3] = Blood levels in mice after intramuscular administration; format: in vivo; conditions: mouse, blood, im, 20 mg/kg, intramuscular dose of 20 mg/kg
Source text: Compounds were solubilized in 0.1 M phosphate buffer pH 7. Values are fro
a single test; 4 mice used per compound.
*t1/2 refers to halflife in minutes
**AUC refers to the area under the blood concentrationtime curve
(§1) Also shown is the urinary recovery in the mice.
Compounds were solubilized in 0.1 M phosphate buffer, pH 7.
Values based on a single test; 4 mice per compound.
*T1/2 refers to halflife in minutes

[4] = Urinary recovery after intramuscular administration to mice; format: in vivo; conditions: mouse, urine, im, 20 mg/kg, intramuscular dose of 20 mg/kg, 0-6 hour collection, read-out: Urine Recovery
Experimental: Compounds were solubilized in 0.1 M phosphate buffer pH 7. Values are from a single test; 4 mice per compound.
as §1
***Recovery based on 0-6 hour collection

[5] = Half-life in phosphate buffer solution; format: physicochemical
Experimental: A solution of para-nitrobenzyl 3-[2-(N-methylthiomorpholinium diphenylphosphate)ethylthio]-6α-[1'-(R)-hydroxyethyl]-7-oxo-1-azabicyclo[3.2.0]hept-2-ene-2-carboxylate (1.31 g, 1.76 mmol) in 0.1 M pH 7.4 phosphate buffer (48.8 mL), tetrahydrofuran (20 mL) and diethyl ether (20 mL) was hydrogenated over 10% pd/C (1.5 g) in a Parr shaker for 1 h at 40 psi. The reaction mixture was diluted with diethyl ether (40 mL) and the phases were separated. The organic phase was washed with water (2×5 mL). The aqueous phases were combined, filtered through a #52 hardened filter paper, washed with diethyl ether (2×20 mL) and pumped under vacuum. The aqueous solution was poured on a silica gel reverse phase column and the desired carbapenem was eluted with 5% acetonitrile-water.
To a solution of p-nitrobenzyl (5R,6S)-3-[2-(1-methylmorpholino)ethylthio]-6-[(R)-1-hydroxyethyl]-7-oxo-1-azabicyclo[3.2.0]hept-2-ene-2-carboxylate diphenylphosphate (0.360 g, 0.49 mmol) in 13 mL of phosphate buffer (0.05 M pH 7.4) was added 0.36 g of 10% palladium-on-charcoal, 20 mL of tetrahydrofuran and 20 mL of diethyl ether. This mixture was hydrogenated (Parr) at 32 psi for 1 h. The mixture was filtered through Celite and the filter pad was washed with H2 O and diethyl ether. The aqueous phase was separated and the pH was adjusted to 7.0 with additional pH 7.4 phosphate buffer. After removing residual organic solvents in vacuo the aqueous solution was applied to a C18 reverse-phase column.
To a solution of (5R,6S)paranitrobenzyl 3-[2-(1,4-dimethyl-1-piperazinium)ethylthio]-6-[1-(R)-hydroxyethyl]-7-oxo- 1-azabicyclo[3.2.0]hept-2-ene-2-carboxylate diphenylphosphate (0.47 g, 0.623 mmol) in wet tetrahydrofuran (25 mL) was added diethyl ether (25 mL), potassium phosphate monobasic-sodium hydroxide buffer (13 mL, pH 7.22) and 10% palladium on charcoal (0.47 g). The resulting mixture was hydrogenated at 23° C. under 40 psi for 1 h. The two layers were separated and the organic layer was extracted with water (2×7 mL).
To a cold (-10° C.) solution of (5R,6S)-3-[2 -(N-methyl-thiomorpholinium)ethylthio]-6-[1-(R)-hydroxyethyl]-7-oxo-1-azabicyclo(3.2.0)-hept-2-ene-2-carboxylate (608 mg, 1.65 mmol) in a 1:1 mixture of acetonitrile-water (9 mL) was added m-chloroperbenzoic acid (334.8 mg, 1.65 mmol) in small portion over a 1 hour period. The mixture was then diluted with water (15 mL) and washed with diethyl ether (3×15 mL).
A mixture of (5R,6S) paranitrobenzyl 3-[2-(1,4,4-trimethyl-1-piperazinium)ethylthio]-6-[1R-hydroxyethyl]-7-oxo- 1-azabicyclo(3.2.0)hept-2-ene-2-carboxylate bischloride (0.40 g, 0.68 mmol), phosphate buffer (30 mL, 0.05M, pH 7.0), tetrahydrofuran (10 mL), ether (30 mL) and 10% palladium on charcoal (0.40 g) was hydrogenated at 23° C. under 35 psi for 1 h. The two phases were separated. The organic phase was extracted with water (10 mL).

P. aeruginosa A-9843a [6] = assay: Protective effect in the intramuscular treatment of infected mice (PD50); format: in vivo; conditions: Pseudomonas aeruginosa, A9843A, im, read-out: PD50/treatment, P. aeruginosa A9843A
Experimental: The PD50 (dose in mg/kg required to give protection to 50% of the infected mice) is indicated.
Treatment Schedule: Mice were treated i.m. with drugs 0 and 2 hours post-infection; 5 mice per dose were used for each test
*For compound of Ex. 2, mice were infected i.p. with 2 × 10^9
compounds of Ex. 4 and 5, mice were infected i.p. with ~9 ×
were treated i.m. with drugs 0 and 2 h postinfection.

P. aeruginosa A20481 = assay: as above; format: in vivo; conditions: Pseudomonas aeruginosa, A20481, im; mice infected i.p. (Ex. 2: 1 × 10^5 organisms), treated i.m. 0 and 2 h postinfection
[7] = A9537, 50% serum, tube dilution, read-out: MIC S. aureus-50% serum A-9537
[8] = A9537, tube dilution, Nutrient Broth, read-out: MIC S. aureus A-9537

| SMILES | MIC (S. pneumoniae A-9585) [µg/mL] | MIC (S. pyogenes A-9604) [µg/mL] | MIC (S. aureus A-9537; [7]) [µg/mL] | MIC (S. aureus A-9537; [8]) [µg/mL] | MIC [1] [µg/mL] | MIC (S. faecalis A20688) [µg/mL] | MIC (E. coli A15119) [µg/mL] | MIC (E. coli A20341-1) [µg/mL] | MIC (K. pneumoniae A-9664) [µg/mL] | MIC (K. pneumoniae A20468) [µg/mL] | MIC (P. mirabilis A-9900) [µg/mL] | MIC (P. vulgaris A21559) [µg/mL] | MIC (P. morganii A15153) [µg/mL] | MIC (P. rettgeri A22424) [µg/mL] | MIC (S. marcescens A20019) [µg/mL] | MIC (E. cloacae A-9656) [µg/mL] | MIC (P. aeruginosa A-9843A [2]) [µg/mL] | MIC (P. aeruginosa A21213) [µg/mL] | MIC (E. cloacae A-9659) [µg/mL] | further results |
| --- | --- | --- | --- | --- | --- | --- | --- | --- | --- | --- | --- | --- | --- | --- | --- | --- | --- | --- | --- | --- |
| C[C@@H](O)[C@H]1C(=O)N2C(C(=O)[O-])=C(SCC[N+]3(C)CCOCC3)C[C@H]12 [Example 3, (5R,6S)-3-[2-(1-methylmorpholino)ethylthio]-6-[(R)-1-hydroxyethyl]-7-oxo-1-azabicyclo[3.2.0]hept-2-ene-2-carboxylate] | 0.03 (≈ 0.0842 µM) | 0.03 (≈ 0.0842 µM) | 0.13 (≈ 0.365 µM) | 0.03 (≈ 0.0842 µM) | 0.03 (≈ 0.0842 µM) | 0.5 (≈ 1.4 µM) | 0.03 (≈ 0.0842 µM) | 0.03 (≈ 0.0842 µM) | 0.13 (≈ 0.365 µM) | 0.25 (≈ 0.701 µM) | 0.13 (≈ 0.365 µM) | 0.03 (≈ 0.0842 µM) | 0.13 (≈ 0.365 µM) | 0.5 (≈ 1.4 µM) | 0.06 (≈ 0.168 µM) | 0.5 (≈ 1.4 µM) | 63 (≈ 177 µM) | 8 (≈ 22.4 µM) | 0.25 (≈ 0.701 µM) | Cmax [3]: 16200 ng/mL; AUC ([3]; read-out: Blood AUC): 4800 ng·h/mL; half-life ([3]; read-out: Blood T1/2): 8 min; dose excreted at 6 h [4]: 15 ± 3%; half-life ([5]; phosphate buffer, pH 7.4, pH 7.4, 36.8° C., read-out: t1/2 (solution stability) (converted)): 18.5 h |
| C[C@@H](O)[C@H]1C(=O)N2C(C(=O)[O-])=C(SCC[N+]3(C)CCSCC3)C[C@H]12 [Example 2, 3-[2-(N-Methyl-thiomorpholinium)ethylthio]-6α-[1'-(R)-hydroxyethyl]-7-oxo-1-azabicyclo[3.2.0]-hept-2-ene-2-carboxylate] | 0.001 (≈ 0.00268 µM) | 0.002 (≈ 0.00537 µM) | 0.016 (≈ 0.043 µM) | 0.008 (≈ 0.0215 µM) | 0.016 (≈ 0.043 µM) | 0.25 (≈ 0.671 µM) | 0.016 (≈ 0.043 µM) | 0.03 (≈ 0.0805 µM) | 0.06 (≈ 0.161 µM) | 0.13 (≈ 0.349 µM) | 0.06 (≈ 0.161 µM) | 0.03 (≈ 0.0805 µM) | 0.06 (≈ 0.161 µM) | 0.13 (≈ 0.349 µM) | 0.06 (≈ 0.161 µM) | 0.13 (≈ 0.349 µM) | 32 (≈ 85.9 µM) | 8 (≈ 21.5 µM) | 0.13 (≈ 0.349 µM) | ED50 (P. aeruginosa A-9843a [6]): 4.7 mg/kg; ED50 (P. aeruginosa A20481): 33 mg/kg; half-life ([5]; 0.1 m phosphate buffer, pH 7, 0.1 M pH 7 phosphate buffer, 37° C., read-out: T1/2 (solution stability) (converted)): 17.7 h |
